Experimental data: publication PMC10361461, “Evaluating the solubility of compounds intended for intramammary infusion based upon tests conducted across a range of milk matrices” (PLOS ONE, 2023)
In brackets after ≈: the same amount, converted by molar mass. Counter-ions that a name gives are not always drawn. Like-named read-outs stand apart in the source and are kept apart here. Marks after values point to notes of the source that are not given here.

Legend:
plasma protein = settings: cited from earlier work
[1] = Solubility in milk related vehicles, previous study (Li et al., 2022); assay type: physicochemical; settings: RT; data ref 6
[2] = cited from earlier work
[3] = cited from earlier work; for Solubility in Water at 25°C: descriptions and ranges based on USP definitions
[4] = cited from earlier work; remark: listed apart in the source
[5] = Solubility assessment in milk vehicles and 10 mM sodium phosphate buffer pH 6.8, HPLC analysis; assay type: physicochemical; settings: for USP solubility classification: across tested media; for solubility at 60 min: thermodynamic from solid
Procedure: Solubility assessment was performed in all milk vehicles listed above. A 10 mM sodium phosphate buffer pH 6.8 was also included as a control. For each solubility sample, an excess amount of drug powder was weighed in a 20-mL glass vial. A suitable volume of the vehicle, pre-equilibrated to the desired temperature, was added to the drug powder. The samples were stirred for 60 minutes at 38°C or 20°–25°C [room temperature (RT)] prior to processing. The temperature of 38°C reflects the rectal temperature the healthy adult cow, 38°C [17].
Upon completion of this portion of the test procedure, approximately 2 mL of the solubility sample was passed through the Phenex-GF 1.2 μm filter to remove the excess drug solid. The filtration and solvent extraction steps were carried out immediately for each sample after the solubility testing was completed. All supplies used in the filtration were pre-equilibrated at the corresponding temperature. […] An aliquot of 0.5 mL filtrate was accurately transferred to a microcentrifuge tube followed by the addition of 1 mL extraction solvent. The extraction solvent was 0.1% TFA in acetonitrile (mobile phase channel B). The mixture was then centrifuged at 10,000 rpm, and about 1 mL of the supernatant was passed through a Phenex-RC 0.45 μm filter. The filtrate was collected in an HPLC autosampler vial and analyzed by the HPLC method described below.
A gradient HPLC method, described in Table 5, was used to analyze the concentration of all drug solubility samples after treatment.

[6] = design: method as in earlier work; settings: cited from earlier work
[7] = room temperature, expressed as free form of cephapirin

## CC(=O)Nc1ccc(O)cc1 [Acetaminophen]
Plasma protein
  Plasma Protein Binding: 20–25%
[1]
  Ratio of solubility, Reconstituted whole milk versus raw milk: 1.01
  Ratio of solubility, Skim milk versus raw milk: 1.08
  Ratio of solubility, Whole milk versus raw milk: 1.05
  Ratio of solubility, pH 6.8 buffer versus raw milk: 1.05
[2]
  Ionization state at pH 7: Neutral
[3]
  Solubility in Water at 25°C: Sparingly Soluble (10–33 mg/mL)

## CN(C)CCC=C1c2ccccc2CCc2ccccc21 [Amitriptyline HCl]
[4]; free base
  Log P: 5.0
[4]; pH 7.4
  Log P: 3.0
Plasma protein
  Plasma Protein Binding: ~ 95%
[2]; base
  pKa: 9.45 (base)
[2]
  Ionization state at pH 7: Positively charged
[3]
  Solubility in Water at 25°C: Freely Soluble (100–1000 mg/mL)

## CC(=O)OCC1=C(C(=O)O)N2C(=O)[C@@H](NC(=O)CSc3ccncc3)[C@H]2SC1.CC(=O)OCC1=C(C(=O)O)N2C(=O)[C@@H](NC(=O)CSc3ccncc3)[C@H]2SC1.c1ccc(CNCCNCc2ccccc2)cc1 [Cephapirin Benzathine, Cephapirin benzathine]
[5]; 38°C, expressed as free form of cephapirin
  Solubility, Raw Milk: 0.706 ± 0.021 mg/mL
[5]; 38°C, milk powder Lot 1, expressed as free form of cephapirin
  Solubility, Reconstituted Whole Milk Powder (Nestle), Lot 1: 0.740 ± 0.005 mg/mL
[5]; 38°C, milk powder Lot 2, expressed as free form of cephapirin
  Solubility, Reconstituted Whole Milk Powder (Nestle), Lot 2: 0.762 ± 0.028 mg/mL
[5]
  USP solubility classification: very slightly soluble
[5]; [7]
  Solubility, Raw Milk: 0.476 ± 0.003 mg/mL
  Solubility, Reconstituted Whole Milk Powder (Nestle): 0.508 ± 0.006 mg/mL
  Solubility, Skim Milk: 0.460 ± 0.007 mg/mL
  Solubility, Whole Milk: 0.509 ± 0.010 mg/mL
  Solubility, pH 6.8 buffer (control): 0.352 ± 0.003 mg/mL
[3]; 0.1 N HCl
  Solubility in 0.1 N HCl (descriptive): soluble
[3]; alcohol
  Solubility in alcohol (descriptive): freely soluble
[3]; ether
  Solubility in ether (descriptive): practically insoluble
[3]; toluene
  Solubility in toluene (descriptive): practically insoluble
[3]
  Solubility in water (descriptive): practically insoluble

## CC(=O)OCC1=C(C(=O)O)N2C(=O)[C@@H](NC(=O)CSc3ccncc3)[C@H]2SC1 [Cephapirin Sodium, Cephapirin sodium]
[5]; 10 mM sodium phosphate buffer, pH 6.8, aqueous buffer, room temperature, expressed as free form of cephapirin, read-out: Solubility, pH 6.8 buffer (control)
  solubility at 60 min: > 200 mg/mL
[5]
  USP solubility classification: freely soluble
[5]; bovine, 38 °C, plasma or biological fluid, reconstituted and raw milk, read-out: Solubility in reconstituted and raw milk
  solubility at 60 min: > 500 mg/mL
[5]; bovine, milk vehicles (all tested media except the pH 6.8 buffer), plasma or biological fluid, all tested media with the exception of the pH 6.8 aqueous buffer, read-out: Solubility in the tested media
  solubility at 60 min: > 350 mg/mL
[5]; bovine, raw milk, plasma or biological fluid, 38°C, expressed as free form of cephapirin, read-out: Solubility, Raw Milk
  solubility at 60 min: > 500 mg/mL
[5]; bovine, raw milk, plasma or biological fluid, room temperature, expressed as free form of cephapirin, read-out: Solubility, Raw Milk
  solubility at 60 min: > 350 mg/mL
[5]; bovine, reconstituted whole milk powder (Nestle), plasma or biological fluid, room temperature, expressed as free form of cephapirin, read-out: Solubility, Reconstituted Whole Milk Powder (Nestle)
  solubility at 60 min: > 350 mg/mL
[5]; bovine, skim milk, plasma or biological fluid, room temperature, expressed as free form of cephapirin, read-out: Solubility, Skim Milk
  solubility at 60 min: > 350 mg/mL
[5]; bovine, whole milk, plasma or biological fluid, room temperature, expressed as free form of cephapirin, read-out: Solubility, Whole Milk
  solubility at 60 min: > 350 mg/mL
[5]; reconstituted whole milk powder (Nestle), plasma or biological fluid, 38°C, expressed as free form of cephapirin, read-out: Solubility, Reconstituted Whole Milk Powder (Nestle)
  solubility at 60 min: > 500 mg/mL
[3]; most organic solvents
  Solubility in most organic solvents (descriptive): insoluble
[3]
  Solubility in water (descriptive): very soluble

## C[C@@H]1C[C@H]2[C@@H]3CCC4=CC(=O)C=C[C@]4(C)[C@@]3(F)[C@@H](O)C[C@]2(C)[C@@]1(O)C(=O)CO [Dexamethasone]
Plasma protein
  Plasma Protein Binding: ~77%
[1]
  Ratio of solubility, Reconstituted whole milk versus raw milk: 1.16
  Ratio of solubility, Skim milk versus raw milk: 1.04
  Ratio of solubility, Whole milk versus raw milk: 1.08
  Ratio of solubility, pH 6.8 buffer versus raw milk: 0.64
[2]; in words
  pKa: Non-ionizable
[2]
  Ionization state at pH 7: Neutral
[3]
  Solubility in Water at 25°C: Practically Insoluble (≤ 0.1 mg/mL)

## CN1C(C(=O)Nc2ccccn2)=C(O)c2ccccc2S1(=O)=O [Piroxicam]
[6]; aqueous buffer
  Solubility in aqueous buffer: 0.287 ± 0.019 mg/mL (≈ 866 µM)
[6]; skim milk
  Solubility in skim milk: 0.262 ± 0.005 mg/mL (≈ 791 µM)
[4]; pH 6.5
  Log P: -1.33
[4]; pH 6.6
  Log P: 0.72
Plasma protein
  Plasma Protein Binding: ~ 99%
[3]
  Solubility in Water at 25°C: Practically Insoluble (≤ 0.1 mg/mL)^c

## C[C@]12C=CC(=O)C=C1CC[C@@H]1[C@@H]2[C@@H](O)C[C@@]2(C)[C@H]1CC[C@]2(O)C(=O)CO [Prednisolone]
[4]
  Log P: ~ 1.6
Plasma protein
  Plasma Protein Binding: 60–90%
[2]; in words
  pKa: Non-ionizable
[2]
  Ionization state at pH 7: Neutral
